Results on five molecules are retold here after patent US20020102259A1, “Methods and compositions for stimulating CD 45 and thereby suppressing microglial activation associated with Alzheimer's disease” (priority 2000, published 2002).

Entries after “also recorded” stand apart in the source; their conditions may differ.

The subject of assay [1] is primary cultured microglial cells. The assay can be described thus: TNF-α ELISA on primary cultured microglial cells. The assay is classed as cell-based, mouse. To be noted: for TNF-α production (microglial activation): phosphatase inhibitor co-treated with Aβ peptides (1000 nM), wild-type microglia, 12 hours; for TNF-α release induced by phen and Aβ peptides: microglia activated with phen (5 mM) and Aβ peptides (1000 nM), 12 h, effect of added agent. On the procedure:
(§1) Breeding pairs of BALB/c and CD45 deficient (C57BL/601aHsd-Ptprc) mice were purchased from Jackson Laboratory (Bar Harbor, Maine) and housed in the animal facility at the University of South Florida Health Science Center. Tg APPSW mice are the 2576 line backcrossed to C57B6/SJL as previously described (Hsiao et al., 1995; Hsiao et al., 1996). Murine primary culture microglia were isolated from mouse cerebral cortices and were grown in RPMI medium supplemented with 5% fetal calf serum, 2 mM glutamine, 100 U/mL penicillin, […] streptomycin and 0.05 mM 2-mercaptoethanol according to previously described methods (Chao et al., 1992). Briefly, cerebral cortices from newborn mice (1-2 days old) were isolated under sterile conditions and were kept at 4 degrees Centigrade prior to mechanical dissociation. Cells were plated in […] flasks and complete medium was added. Primary cultures were kept for 14 days so that only glial cells remained, and microglia were isolated by shaking flasks at 200 rpm in a LabLine TM Incubator-Shaker. More than 98% of these glial cells stained positive for Mac-1 (CD11b /CD18; Boehringer Mannheim Biochemicals, Indianapolis, Ind.). Mouse primary culture neuronal cells were prepared as previously described (Chao et al., 1992). Briefly, cerebral cortices were isolated from BALB/c mouse embryos, between 15 to 17 days in utero, and cortices were mechanically dissociated in trypsin ([…]) following incubation for 15 min at 37° C. Cells were collected following centrifugation at 1200 rpm and resuspended in DMEM (GIBCO, Gaithersburg, Md.) supplemented with 10% fetal calf serum, 10% horse serum, uridine (33.6 mg/mL, Sigma Chemical-Co., St. Louis, Mo.) and fluorodeoxyuridine (1 3.6 mg/mL, Sigma) and plated in 24 well tissue-culture plates at 2.5×1 O′ cells/well after collagen-coating the plates. After 10 days in vitro, cells were passed in preparation for subsequent experiments. […] To verify CD45 deficiency status, CD45 expression in microglia isolated from CD45 -deficient mice was determined by FACS (fluorescence activated cell sorter) analysis as previously described (Tan et al., 1999a), and CD45 was undetectable in these cells (data not shown).
(§2) Primary cultured microglial cells were plated in 24-well tissue-culture plates (Costar, Cambridge, Mass.) at 5×10^4 cells/well and stimulated for 12 h with phen ([…]), Aβ peptides (1000 nM) or phen/Aβ peptides in the presence or absence of anti-CD45 antibody (1:200) or PD98059 ([…]) pre-treatment for 1 hour, or appropriate controls. […] The Bio-Rad protein assay (Bio-Rad Laboratories, Hercules, Calif.) was performed to measure total cellular protein from each of the cell groups under consideration just prior to quantification of cytokine release by ELISA or NO secretion by NO assay.
(In general: In an ELISA, binding on a coated surface is turned into a signal by an enzyme label.)

Assay [2] has the same test system. Nature of the assay: Nitric oxide (NO) release assay on primary cultured microglial cells. Type of assay: cell-based, mouse. The following applies: for NO release (microglial activation): phosphatase inhibitor co-treated with Aβ peptides (1000 nM), wild-type microglia, 12 hours; for NO release induced by phen and Aβ peptides: microglia activated with phen (5 mM) and Aβ peptides (1000 nM), 12 h, effect of added agent. On the procedure: as §1, §2

The test system of another assay is Tg APPSW mice. The following applies: Tg APPSW mice given ibuprofen; cited from earlier work.
The subject of assay [3] is p44/22 MAPK. Nature of the assay: Immune complex kinase assay (phospho-Elk 1) in microglial cell lysates. Type of assay: cell-based, mouse. The following applies: microglia co-treated with phen and Aβ peptides; effect of added agent. On the procedure: Primary culture microglial cells were seeded in 6-well tissue-culture plates at 8×10^5 per well. Thirty minutes following co-treatment with phen and Aβ peptides in the presence or absence of anti-CD45 antibody or appropriate controls, microglial cells were lysed in ice-cold lysis buffer (as described above). Total cellular protein was quantified with the BioRad protein assay, and an aliquot of […] of protein for each treatment condition was separated by SDS-PAGE. p44/22 MAPK activity was determined using the p44/22 MAP-Kinase Assay Kit (New England BioLabs, Beverly, Mass.) in strict accordance with the manufacturer's instruction. The phosphorylated form of the Elk 1 p44/22 MAPK fusion protein was visualized by Western immunoblotting (as described above) using a specific antibody for phosphorylated Elk 1 supplied with the kit.

Assay [4] relates to p44/22 MAPK. Nature of the assay: Western immunoblotting of phosphorylated/total p44/22 MAPK in microglial cell lysates. The assay is classed as cell-based, mouse. To be noted: microglia co-treated with phen and Aβ peptides; effect of added agent. On the procedure:
Murine primary culture microglia were plated in 6 well tissue-culture plates at a density of 8×10^5 cells/well. These cells were incubated for 30 min with or without phen ([…]) and Aβ peptides (1000 nM) in the presence or absence of anti-CD45 or control antibodies (1:200 dilution for each) or PD98059 ([…]) pre-treatment for 1 hour, or appropriate controls. Immediately following culturing, microglia were washed in ice-cold phosphate buffered saline (PBS) 3×, scraped into ice-cold PBS, and lysed in an ice-cold lysis buffer containing 20 mM Tris (pH 7.5), 150 mM NaCl, 1 mM EDTA, 1 mM EGTA, 1% Triton X-100, 2.5 mM sodium pyrophosphate, 1 mM b-glycerolphosphate, 1 mM Na3VO4, 1 μg/mL leupeptin, and 1 mM PMSF. After incubation for 30 min. on ice, samples were centrifuged at high speed for 15 minutes, and supernatants were collected. Total protein content was estimated using the Bio-Rad protein assay. An aliquot corresponding to 50 μg of total protein of each sample was separated by SDS-PAGE and transferred electrophoretically to Hy-bond PVDF membranes. Non-specific antibody binding was blocked with 5% non-fat dry milk for 1 h at room temperature in TBS (20 mM Tris, 500 mM NaCl, pH 7.5). […] Densiometric analysis was preformed for all blots using the Fluor-S Multimager™ with Quantity One™ software (Bio-Rad, Calif.).
In general terms: Immunoblotting shows a protein as a band on a membrane.

Turning to `[Na+].[Na+].[Na+].[O]=[V]([O-])([O-])[O-]` [sodium orthovanadate], the “TNF-α production (microglial activation)” value in assay [1] is “results similar to phen and Aβ peptide co-treatment”. In addition, the “NO release (microglial activation)” value in assay [2] is “results similar to phen and Aβ peptide co-treatment”.
Take `CC(C)Cc1ccc(C(C)C(=O)O)cc1` (centres unmarked) [ibuprofen]: in the assay on Tg APPSW mice, the “Aβ deposits, astrocytosis, and dystrophic neurites” value is listed as “reduction”.
Turning to `C=C1[C@@H](O)[C@@H]2O[C@]3(CC[C@H](/C=C/[C@@H](C)[C@@H]4CC(C)=C[C@@]5(O[C@H](C[C@@](C)(O)C(=O)O)CC[C@H]5O)O4)O3)CC[C@H]2O[C@@H]1[C@@H](O)C[C@H](C)[C@H]1O[C@@]2(CCCCO2)CC[C@H]1C` [okadaic acid], the “TNF-α production (microglial activation)” value in assay [1] is reported as “not detectable”. The “NO release (microglial activation)” value in assay [2] is reported as “not detectable”.
For the molecule `COc1cccc(-c2cc(=O)c3ccccc3o2)c1N` [PD98059], the “phen and Aβ-mediated activity of p44/22 MAPK” value in the assay on p44/22 MAPK [3] is reported as “significant reduction”. For the same molecule, in assay [1], the “TNF-α release induced by phen and Aβ peptides” value is given as “markedly decreased; also recorded: statistically interactive blockade”. The “NO release induced by phen and Aβ peptides” value in assay [2] was “markedly decreased; also recorded: statistically interactive blockade”. Besides, in the assay with p44/22 MAPK [4], the “phen and Aβ-mediated phosphorylation of p44/22 MAPK” value is “significant reduction”.

B1: CD45 recombinant protein: Human CD45 recombinant protein obtained from CALBIOCHEM, added at 20 U/mL (protein, UniProt P08575 26-1306, looked up)
Receptor-type …: QSPTPSPTGLTTAKMPSVPLSSDPLPTHTTAFSPASTFERENDFSETTTSLSPDNTSTQVSPDSLDNASAFNTTGVSSVQTPHLPTHADSQTPSAGTDTQTFSGSAANAKLNPTPGSNAISDVPGERSTASTFPTDPVSPLTTTLSLAHHSSAALPARTSNTTITANTSDAYLNASETTTLSPSGSAVISTTTIATTPSKPTCDEKYANITVDYLYNKETKLFTAKLNVNENVECGNNTCTNNEVHNLTECKNASVSISHNSCTAPDKTLILDVPPGVEKFQLHDCTQVEKADTTICLKWKNIETFTCDTQNITYRFQCGNMIFDNKEIKLENLEPEHEYKCDSEILYNNHKFTNASKIIKTDFGSPGEPQIIFCRSEAAHQGVITWNPPQRSFHNFTLCYIKETEKDCLNLDKNLIKYDLQNLKPYTKYVLSLHAYIIAKVQRNGSAAMCHFTTKSAPPSQVWNMTVSMTSDNSMHVKCRPPRDRNGPHERYHLEVEAGNTLVRNESHKNCDFRVKDLQYSTDYTFKAYFHNGDYPGEPFILHHSTSYNSKALIAFLAFLIIVTSIALLVVLYKIYDLHKKRSCNLDEQQELVERDDEKQLMNVEPIHADILLETYKRKIADEGRLFLAEFQSIPRVFSKFPIKEARKPFNQNKNRYVDILPYDYNRVELSEINGDAGSNYINASYIDGFKEPRKYIAAQGPRDETVDDFWRMIWEQKATVIVMVTRCEEGNRNKCAEYWPSMEEGTRAFGDVVVKINQHKRCPDYIIQKLNIVNKKEKATGREVTHIQFTSWPDHGVPEDPHLLLKLRRRVNAFSNFFSGPIVVHCSAGVGRTGTYIGIDAMLEGLEAENKVDVYGYVVKLRRQRCLMVQVEAQYILIHQALVEYNQFGETEVNLSELHPYLHNMKKRDPPSEPSPLEAEFQRLPSYRSWRTQHIGNQEENKSKNRNSNVIPYDYNRVPLKHELEMSKESEHDSDESSDDDSDSEEPSKYINASFIMSYWKPEVMIAAQGPLKETIGDFWQMIFQRKVKVIVMLTELKHGDQEICAQYWGEGKQTYGDIEVDLKDTDKSSTYTLRVFELRHSKRKDSRTVYQYQYTNWSVEQLPAEPKELISMIQVVKQKLPQKNSSEGNKHHKSTPLLIHCRDGSQQTGIFCALLNLLESAETEEVVDIFQVVKALRKARPGMVSTFEQYQFLYDVIASTYPAQNGQVKKNNHQEDKIEFDNEVDKVKQDANCVNPLGAPEKLPEAKEQAEGSEPTSGTEGPEHSVNGPASPALNQGS
Turning to B1, the “TNF-α release induced by phen and Aβ peptides” value in assay [1] is on record as “markedly decreased”. Further, the “NO release induced by phen and Aβ peptides” value in assay [2] is on record as “markedly decreased”.
